Values after ≈ are worked out from the molar mass of the structure shown.
Tests used:
Test in all cases: in vitro antibacterial evaluation, MIC by broth dilution
Type in all cases: cell-based
Escherichia coli = conditions: 18 hours at 35° C.
Summary of the method: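 Broth dilution MIC per NCCLS M7-A2 in Mueller-Hinton II medium, inoculum 5×10^5 CFU/mL, antibiotic range 64-0.06 μg/mL. MIC taken as lowest concentration inhibiting growth.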

Staphylococcus sp. = conditions: broth dilution, 18 hours at 35° C.
Summary of the method: (§1)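 Broth dilution per NCCLS M7-A2 in Mueller-Hinton II medium, inoculum 5×10^5 CFU/mL, antibiotic range 64-0.06 μg/mL. MIC taken as lowest concentration inhibiting growth; Gram-positive panel includes recent clinical isolates resistant to methicillin, penicillin and/or vancomycin.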

Enterococcus sp. = conditions: broth dilution, 18 hours at 35° C.
Summary of the method: as §1

Streptococcus sp. = conditions: broth dilution, 18 hours at 35° C.
Summary of the method: as §1

- MIC Escherichia coli (ATCC 25922) (Escherichia coli): >64 µg/mL
- MIC Escherichia coli (GC 4559) (Escherichia coli): >64 µg/mL
- MIC Escherichia coli (GC 4560) (Escherichia coli): 8 µg/mL (≈ 5.38 µM)
- MIC Staphylococcus aureus (ATCC 29213) (Staphylococcus sp.; strain ATCC 29213): 32 µg/mL (≈ 21.5 µM)
- MIC Staphylococcus aureus (GC 1131) (Staphylococcus sp.; strain GC 1131): 32 µg/mL (≈ 21.5 µM)
- MIC Staphylococcus aureus (GC 3051) (Staphylococcus sp.; strain GC 3051): 32 µg/mL (≈ 21.5 µM)
- MIC Staphylococcus aureus (GC 3053) (Staphylococcus sp.; strain GC 3053): 64 µg/mL (≈ 43.1 µM)
- MIC Staphylococcus aureus (GC 4541) (Staphylococcus sp.; strain GC 4541): 32 µg/mL (≈ 21.5 µM)
- MIC Staphylococcus aureus (GC 4542) (Staphylococcus sp.; strain GC 4542): 32 µg/mL (≈ 21.5 µM)
- MIC Staphylococcus aureus-SMITH (GC 4543) (Staphylococcus sp.; strain GC 4543): 32 µg/mL (≈ 21.5 µM)
- MIC Staphylococcus aureus (GC 4544) (Staphylococcus sp.; strain GC 4544): 32 µg/mL (≈ 21.5 µM)
- MIC Staphylococcus aureus (GC 4545) (Staphylococcus sp.; strain GC 4545): 32 µg/mL (≈ 21.5 µM)
- MIC Coagulase Negative Staphylococcus (GC 4547) (Staphylococcus sp.; strain GC 4547): 32 µg/mL (≈ 21.5 µM)
- MIC Coagulase Negative Staphylococcus (GC 4548) (Staphylococcus sp.; strain GC 4548): 32 µg/mL (≈ 21.5 µM)
- MIC Coagulase Negative Staphylococcus (GC 4549) (Staphylococcus sp.; strain GC 4549): 32 µg/mL (≈ 21.5 µM)
- MIC Coagulase Negative Staphylococcus (GC 4551) (Staphylococcus sp.; strain GC 4551): 32 µg/mL (≈ 21.5 µM)
- MIC Coagulase Negative Staphylococcus (GC 6257) (Staphylococcus sp.; strain GC 6257): 8 µg/mL (≈ 5.38 µM)
- MIC Enterococcus avium (GC 4558) (Enterococcus sp.; Enterococcus avium (GC 4558)): 32 µg/mL (≈ 21.5 µM)
- MIC Enterococcus faecalis (ATCC 29212) (Enterococcus sp.; Enterococcus faecalis (ATCC 29212)): 64 µg/mL (≈ 43.1 µM)
- MIC Enterococcus faecalis (GC 4552) (Enterococcus sp.; Enterococcus faecalis (GC 4552)): 64 µg/mL (≈ 43.1 µM)
- MIC Enterococcus faecalis (GC 4553) (Enterococcus sp.; Enterococcus faecalis (GC 4553)): 32 µg/mL (≈ 21.5 µM)
- MIC Enterococcus faecalis (GC 4554) (Enterococcus sp.; Enterococcus faecalis (GC 4554)): 64 µg/mL (≈ 43.1 µM)
- MIC Enterococcus faecalis (GC 6189) (Enterococcus sp.; Enterococcus faecalis (GC 6189)): 64 µg/mL (≈ 43.1 µM)
- MIC Enterococcus faecium (GC 2243) (Enterococcus sp.; Enterococcus faecium (GC 2243)): 32 µg/mL (≈ 21.5 µM)
- MIC Enterococcus faecium (GC 4556) (Enterococcus sp.; Enterococcus faecium (GC 4556)): 64 µg/mL (≈ 43.1 µM)
- MIC Enterococcus faecium (GC 4557) (Enterococcus sp.; Enterococcus faecium (GC 4557)): 16 µg/mL (≈ 10.8 µM)
- MIC Enterococcus avium (GC 4558) (Enterococcus sp.): 32 µg/mL (≈ 21.5 µM)
- MIC Enterococcus faecalis (ATCC 29212) (Enterococcus sp.): 64 µg/mL (≈ 43.1 µM)
- MIC Enterococcus faecalis (GC 2242) (Enterococcus sp.): 32 µg/mL (≈ 21.5 µM)
- MIC Enterococcus faecalis (GC 2691) (Enterococcus sp.): 64 µg/mL (≈ 43.1 µM)
- MIC Enterococcus faecalis (GC 3059) (Enterococcus sp.): 64 µg/mL (≈ 43.1 µM)
- MIC Enterococcus faecalis (GC 4552) (Enterococcus sp.): 64 µg/mL (≈ 43.1 µM)
- MIC Enterococcus faecalis (GC 4553) (Enterococcus sp.): 32 µg/mL (≈ 21.5 µM)
- MIC Enterococcus faecalis (GC 4554) (Enterococcus sp.): 64 µg/mL (≈ 43.1 µM)
- MIC Enterococcus faecalis (GC 6189) (Enterococcus sp.): 64 µg/mL (≈ 43.1 µM)
- MIC Enterococcus faecium (GC 2243) (Enterococcus sp.): 32 µg/mL (≈ 21.5 µM)
- MIC Enterococcus faecium (GC 4556) (Enterococcus sp.): 64 µg/mL (≈ 43.1 µM)
- MIC Enterococcus faecium (GC 4557) (Enterococcus sp.): 16 µg/mL (≈ 10.8 µM)
- MIC Enterococcus faecalis (GC 2242) (Enterococcus sp.; strain GC 2242): 32 µg/mL (≈ 21.5 µM)
- MIC Enterococcus faecalis (GC 2691) (Enterococcus sp.; strain GC 2691): 64 µg/mL (≈ 43.1 µM)
- MIC Enterococcus faecalis (GC 3059) (Enterococcus sp.; strain GC 3059): 64 µg/mL (≈ 43.1 µM)
- MIC Streptococcus agalactiae (GC 4564) (Streptococcus sp.): 8 µg/mL (≈ 5.38 µM)
- MIC Streptococcus pneumoniae (ATCC 6301) (Streptococcus sp.): 8 µg/mL (≈ 5.38 µM)
- MIC Streptococcus pneumoniae (GC 1894) (Streptococcus sp.): 4 µg/mL (≈ 2.69 µM)
- MIC Streptococcus pneumoniae (GC 4565) (Streptococcus sp.): 16 µg/mL (≈ 10.8 µM)
- MIC Streptococcus pyogenes (GC 4563) (Streptococcus sp.): 8 µg/mL (≈ 5.38 µM)
- MIC Streptococcus pneumoniae (ATCC 6301) (Streptococcus sp.; strain ATCC 6301): 8 µg/mL (≈ 5.38 µM)
- MIC Streptococcus pneumoniae (GC 1894) (Streptococcus sp.; strain GC 1894): 4 µg/mL (≈ 2.69 µM)
- MIC Streptococcus pyogenes (GC 4563) (Streptococcus sp.; strain GC 4563): 8 µg/mL (≈ 5.38 µM)
- MIC Streptococcus agalactiae (GC 4564) (Streptococcus sp.; strain GC 4564): 8 µg/mL (≈ 5.38 µM)
- MIC Streptococcus pneumoniae (GC 4565) (Streptococcus sp.; strain GC 4565): 16 µg/mL (≈ 10.8 µM)
Compound: CC(c1ccccc1)C1NC(=O)CNC(=O)C(CO)NC(=O)C(CC2CN(Cc3ccccc3)C(=N)N2C2OC(CO)C(O)C(O)C2O)NC(=O)C(CC2CNC(=N)N2)NC(=O)C(Cc2ccc(OC3OC(CO)C(OC4OC5COC6(OC5C(O)C4O)C4CC5CC(C4)CC6C5)C(O)C3O)cc2)NC1=O (stereo not drawn) [Example 80, Cyclo[3-(2-iminoimidazolidin-4-yl)alanyl-3-(1-benzyl-3-hexopyranosyl-2-iminoimidazolidin-4-yl)alanylserylglycyl-β-methylphenylalanyl-O-[4-O-[4,6-O-(2-adamantylidene)hexopyranosyl]hexopyranosyl]tyrosyl]]
- MIC Staphylococcus haemolyticus (GC 4546) (Staphylococcus sp.; strain GC 4546): 32 µg/mL (≈ 21.5 µM)
